What was measured:
[1] = biological target: T1, PAR2 (HT-29 cells, SLIGKV activation) (Homo sapiens, UniProt P55085); assay: Ca FLIPR TETRA assay, ANTAGONIST mode, stimulation with 8 μM SLIGKV; assay type: cell-based; conditions: for IC50: HT-29 cells, stimulation with 8 μM SLIGKV
T1 construct: host or cells: HT-29 cells
T1 sequence (P55085 26-397): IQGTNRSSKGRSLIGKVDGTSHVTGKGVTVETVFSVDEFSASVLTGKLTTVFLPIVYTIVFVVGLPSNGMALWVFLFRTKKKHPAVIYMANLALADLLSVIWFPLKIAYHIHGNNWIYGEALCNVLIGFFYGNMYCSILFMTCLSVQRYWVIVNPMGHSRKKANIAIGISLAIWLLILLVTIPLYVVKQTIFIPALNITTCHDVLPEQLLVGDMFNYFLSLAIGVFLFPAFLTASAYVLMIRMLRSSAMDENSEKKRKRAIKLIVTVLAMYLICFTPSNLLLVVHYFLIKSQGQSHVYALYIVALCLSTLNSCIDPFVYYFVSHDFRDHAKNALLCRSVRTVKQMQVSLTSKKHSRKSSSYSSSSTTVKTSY
Procedure, shortened: (§1)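 Inhibition of activator-evoked Ca2+ flux was recorded on FLIPR Tetra in HT-29 cells after 30 min compound exposure at r.t. A prior read checked whether compounds alone triggered Ca2+ release.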

[2] = biological target: T2, PAR2 (HT-29 cells, trypsin activation) (Homo sapiens, UniProt P55085); assay: Ca FLIPR TETRA assay, ANTAGONIST mode, stimulation with 3.1 U/mL trypsin; assay type: cell-based; conditions: HT-29 cells, stimulation with 3.1 U/mL trypsin
T2 construct: host or cells: HT-29 cells
T2 sequence (P55085 26-397): T1 sequence (P55085 26-397)
Procedure, shortened: as §1

[3] = system: Thrombin-stimulated Ca2+ response in HT-29 cells; assay: Ca FLIPR TETRA assay, ANTAGONIST mode, stimulation with 1 U/mL Thrombin; assay type: cell-based, human; conditions: Homo sapiens, HT-29 cells, stimulation with 1 U/mL Thrombin
Procedure, shortened: as §1

[4] = system: UTP-stimulated Ca2+ response in HT-29 cells; assay: Ca FLIPR TETRA assay, ANTAGONIST mode, stimulation with 0.6 μM UTP; assay type: cell-based, human; conditions: Homo sapiens, HT-29 cells, stimulation with 0.6 μM UTP
Procedure, shortened: as §1

[5] = In vivo rat pharmacokinetics (intravenous and oral); conditions: plasma; for clearance: intravenous 0.5 to 1 mg/kg, read-out: Clp; for Vd: intravenous, read-out: Vss; for bioavailability: oral by gavage; for half-life: read-out: T ½ (converted)
Procedure: Example 61: Protocol for Testing PAR2 Compounds In Vivo Rat Pharmacokinetics Experiments
Compounds delivered by intravenous route were formulated using a solution formulation consisting of 5% N-methylpyrrolidone 10% Vitamin E-TPGS and 85% water (v/v/) or a solution formulation consisting of 25% N-methylpyrrolidone 35% polyethylene glycol 400 and 40% water (v/v/). Intravenous formulations were administered by a bolus injection (over approximately 10 seconds) using a hypodermic needle attaches to a syringe (tail vein). The dose volume was varied from 1 to 2 mL/kg and the dose was varied from 0.5 to 1 mg/kg. Compounds delivered orally were formulated as a solution formulation consisting of 5% N-methylpyrrolidone 10% Vitamin E-TPGS and 85% water (v/v/) or as fine suspension using a cellulose derivative suspending agent with or without the addition of a wetting agent/surfactant. Milling of large particles was performed as needed to reduce particle size using focused electroacoustic milling, homogenization or low energy media milling. A spray-dried solid dispersion was prepared for key compounds using 1:1 combination with cellulose derivatives. Test compounds were administered orally by gavage using a gavage plastic needle attached to a syringe. The dose volume was varied from 5 to 10 mL/kg and the dose was varied from 1 to 600 mg/kg.
Rats were bled by venipuncture (jugular vein) and the samples were collected into tubes containing K3EDTA. The tubes were placed on wet ice until processed. The samples were centrifuged for approximately 10 minutes (at approximately 4° C.) within approximately 30 minutes of collection to prepare plasma or diluted in citrate buffer (1:3) and stored frozen (approximately −30° C.). Thawed plasma or whole blood samples were extracted by protein precipitation using an organic solvent followed by centrifugation. The supernatants were separated by high-performance liquid chromatography coupled to mass spectrometry detection. A calibration curve was prepared using reference standard compounds spiked into either blank plasma or whole blood matrices and extracted similarly to unknown samples. Pharmacokinetic parameters were calculated using non-compartmental analysis.

Row | SMILES | IC50 [1] | IC50 [2] | IC50 [3] | IC50 [4] | IC50 ([1]; antagonist mode) | IC50 ([2]; antagonist mode) | IC50 ([3]; antagonist mode) | IC50 ([4]; antagonist mode) | further results
1 | CC(C)(O)C(=O)N1CCN(C(=O)c2cn3nc(-c4ccc(F)cc4)cc(C4(C)CC4)c3n2)C(C)(C)C1 [Compound I-32, 1-[4-[6-(4-fluorophenyl)-8-(1-methylcyclopropyl)imidazo[1,2-b]pyridazine-2-carbonyl]-3,3-dimethyl-piperazin-1-yl]-2-hydroxy-2-methyl-propan-1-one] | 17 nM | 21 nM | > 50000 nM | > 50000 nM | – | – | – | – | clearance [5]: 29.3 mL/min/kg; Vd [5]: 2.2 L/kg; bioavailability [5]: 39%; half-life [5]: 1.4 h
2 | Cc1cc(C(=O)N2CCN(C(=O)c3cn4nc(-c5ccc(F)cc5)cc(C(C)C)c4n3)C(C)(C)C2)[nH]n1 [Compound I-303] | – | – | – | – | 2 nM | 2 nM | > 1000 nM | > 1000 nM | clearance [5]: 7.15 mL/min/kg; Vd [5]: 2.04 L/kg; bioavailability [5]: 69%; half-life [5]: 5.36 h
3 | CC(C)c1cc(-c2ccc(C(F)(F)F)c(F)c2)nn2cc(C(=O)N3CCN(C(=O)C(C)(C)O)CC3(C)C)nc12 [Compound I-252] | – | – | – | – | 2.6 nM | 6.7 nM | > 1000 nM | > 1000 nM | clearance [5]: 4.17 mL/min/kg; Vd [5]: 1.49 L/kg; bioavailability [5]: 92%; half-life [5]: 5.85 h
4 | Cc1nc(C(=O)N2CCN(C(=O)c3cn4nc(-c5ccc(C(F)(F)F)cc5)cc(C(C)C)c4n3)C(C)(C)C2)c[nH]1 [Compound I-372] | – | – | – | – | 4.5 nM | 5.6 nM | > 1000 nM | > 1000 nM | –
5 | Cc1cccc(-c2cc(C(C)(C)C)c3nc(C(=O)N4CCN(C(=O)c5ccn[nH]5)CC4(C)C)cn3n2)c1 [Compound I-404] | – | – | – | – | 0.9 nM | 4.3 nM | 690 nM | > 1000 nM | –
6 | CCOC(=O)[C@@H]1CCCN(C(=O)c2cn3nc(-c4ccc(F)cc4)cc(C(F)(F)F)c3n2)[C@@H]1C [Compound I-75] | 1100 nM | 1200 nM | 1600 nM | 2200 nM | – | – | – | – | –
7 | Cc1ccc(-c2cc(C(C)C)c3nc(C(=O)N4CCN(C(=O)c5nc(C)n[nH]5)CC4(C)C)cn3n2)cc1 [Compound I-334] | – | – | – | – | 4.6 nM | 4.8 nM | > 1000 nM | > 1000 nM | –
8 | CC(C)(C)c1cc(-c2ccc(Cl)c(F)c2)nn2cc(C(=O)N3CCN(C(=O)[C@H]4C[C@@](C)(O)C4)CC3(C)C)nc12 [Compound I-469] | – | – | – | – | 0.2 nM | 0.2 nM | 8840 nM | 11000 nM | –
9 | O=C(OCc1ccccc1)N1CCN(C(=O)c2cn3nc(-c4ccc(F)cc4)cc(C(F)(F)F)c3n2)CC1 [Compound I-53] | – | 21000 nM | > 50000 nM | > 50000 nM | – | – | – | – | SLIGKV % @ concentration ([1]; @ 5.6 (μM)): 55% @ 5.6
10 | Cc1cc(-c2ccc(F)cc2)nn2cc(C(=O)N3CCN(C(=O)C4(O)CCC4)[C@@H](C)C3)nc12 [Compound I-159] | 7300 nM | 17000 nM | 42000 nM | 36000 nM | – | – | – | – | –
11 | Cc1cc(-c2ccc(F)cc2)nn2cc(C(=O)N3CCN(C(=O)OC(C)(C)C)[C@@H](C)C3)nc12 [Compound I-2, tert-Butyl (2S)-4-[6-(4-fluorophenyl)-8-methyl-imidazo[1,2-b]pyridazine-2-carbonyl]-2-methyl-piperazine-1-carboxylate] | 860 nM | 2400 nM | 6100 nM | 4700 nM | – | – | – | – | –
12 | CC(C)(CO)c1cc(-c2ccc(F)cc2)nn2cc(C(=O)N3CCNC(=O)C3(C)C)nc12 [Compound I-189] | – | – | – | – | 400 nM | 417 nM | > 1000 nM | > 50000 nM | –
13 | CC(C)c1cc(-c2ccc(F)cc2)nn2cc(C(=O)N3CCN(C(=O)C(O)c4cccnc4)[C@@H](C)C3)nc12 (stereo partly drawn) [Compound I-101] | 7 nM | 1400 nM | 27000 nM | 30000 nM | – | – | – | – | –
14 | O=C1CCN(C(=O)c2cn3nc(-c4ccc(F)cc4)cc(C(F)(F)F)c3n2)CC1 [Compound I-66] | 5000 nM | 12000 nM | 48000 nM | > 50000 nM | – | – | – | – | –
15 | CC(C)(C)c1cc(-c2ccc(F)cc2)nn2cc(C(=O)N3CCN(c4nn[nH]n4)C(=O)C3(C)C)nc12 [Compound I-235] | – | – | – | – | 0.7 nM | 1.1 nM | > 1000 nM | 930 nM | –
16 | Cc1n[nH]c(C(=O)N2CCN(C(=O)c3cn4nc(-c5ccc(C(F)(F)F)cc5)cc(C(C)(C)C)c4n3)C(C)(C)C2)n1 [Compound I-403] | – | – | – | – | 1 nM | 1.5 nM | > 1000 nM | > 1000 nM | –
17 | CC(C)(C)c1cc(-c2ccc(Cl)c(F)c2)nn2cc(C(=O)N3CCN(C(=O)c4ccn[nH]4)CC3(C)C)nc12 [Compound I-454] | – | – | – | – | 0.4 nM | 0.7 nM | > 1000 nM | > 1000 nM | –
18 | CC(C)c1cc(-c2ccc(F)c(F)c2)nn2cc(C(=O)N3CCN(C(=O)c4ccncn4)CC3(C)C)nc12 [Compound I-259] | – | – | – | – | 6.2 nM | 16.5 nM | > 1000 nM | > 1000 nM | –
19 | Cc1cc(-c2cc(C(C)C)c3nc(C(=O)N4CCN(C(=O)C5CC(C)(O)C5)CC4(C)C)cn3n2)ccc1F (stereo not drawn) [Compound I-378] | – | – | – | – | 5 nM | 7.2 nM | > 1000 nM | > 1000 nM | –
20 | CC(C)(C)c1cc(-c2ccc(F)cc2)nn2cc(C(=O)N3CCN(C(=O)c4cccnc4)CC3(C)C)nc12 [Compound I-287] | – | – | – | – | 2 nM | 2.8 nM | 630 nM | 980 nM | –
21 | Cc1cccc(-c2cc(C(C)(C)C)c3nc(C(=O)N4CCN(C(=O)c5ccccn5)CC4(C)C)cn3n2)c1 [Compound I-411] | – | – | – | – | 4.8 nM | 6.5 nM | 880 nM | > 1000 nM | –
22 | CC(C)(O)C1CCCN(C(=O)c2cn3nc(-c4ccc(F)cc4)cc(C(F)(F)F)c3n2)C1 (stereo not drawn) [Compound I-69] | 6000 nM | 9300 nM | 8500 nM | 36000 nM | – | – | – | – | –
23 | Cc1nc(C(=O)N2CCN(C(=O)c3cn4nc(-c5ccc(F)c(Br)c5)cc(C(C)(C)C)c4n3)C(C)(C)C2)n[nH]1 [Compound I-504] | – | – | – | – | 1.2 nM | 1.5 nM | > 1000 nM | 460 nM | –
24 | CC(C)c1cc(-c2ccc(C(F)(F)F)cc2)nn2cc(C(=O)N3CCN(C(=O)c4nc[nH]n4)CC3(C)C)nc12 [Compound I-279] | – | – | – | – | 3.3 nM | 4.6 nM | > 1000 nM | > 1000 nM | –
25 | CC(C(=O)NC1CC1)N1CCN(C(=O)c2cn3nc(-c4ccc(F)cc4)cc(C(F)(F)F)c3n2)CC1 (stereo not drawn) [Compound I-55] | 950 nM | 3100 nM | > 50000 nM | > 50000 nM | – | – | – | – | –
26 | CC(C)(O)C(=O)N1CCN(C(=O)c2cn3nc(-c4ccc(F)cc4)cc(C(F)(F)F)c3n2)C(C)(C)C1 [Compound I-36, 1-[4-[6-(4-Fluorophenyl)-8-(trifluoromethyl)imidazo[1,2-b]pyridazine-2-carbonyl]-3,3-dimethyl-piperazin-1-yl]-2-hydroxy-2-methyl-propan-1-one] | 71 nM | 240 nM | > 50000 nM | > 50000 nM | – | – | – | – | –
27 | Cc1cc(-c2cc(C(C)C)c3nc(C(=O)N4CCN(C)C(=O)C4(C)C)cn3n2)ccc1F [Compound I-440] | – | – | – | – | 8.1 nM | 14 nM | > 1000 nM | > 1000 nM | –

From patent US20190119282A1, “IMIDAZOPYRIDAZINES USEFUL AS INHIBITORS OF THE PAR-2 SIGNALING PATHWAY” (Vertex Pharmaceuticals Incorporated, priority 2013, published 2019)
